Measurements as given in ChEMBL document CHEMBL1144405, “Synthesis and cellular studies of nonaggregated water-soluble phthalocyanines” (J Med Chem, 2005).

Legend:
HEp-2 [1] = assay: Percent of cell viability for the compound was measured in human HEp2 cells; type: functional
V79 = assay: Percent of cell viability for the compound was measured in hamster V79 cells; type: functional, Cricetulus griseus
HEp-2 [2] = assay: Inhibitory concentration was measured against human HEp2 cells; upon exposure to light (1 J/cm**2); type: functional, cell-based; conditions: HEp-2, light or radiation study
HEp2 (human) = assay: Inhibitory concentration was measured against human HEp2 cells; upon exposure to light (1 J/cm**2); conditions: HEp2, light or radiation study

O=C(O)c1cc(Oc2cc3c(cc2Oc2cc(C(=O)O)cc(C(=O)O)c2)-c2nc-3nc3[n-]c(nc4nc(nc5[n-]c(n2)c2cc(Oc6cc(C(=O)O)cc(C(=O)O)c6)c(Oc6cc(C(=O)O)cc(C(=O)O)c6)cc52)-c2cc(Oc5cc(C(=O)O)cc(C(=O)O)c5)c(Oc5cc(C(=O)O)cc(C(=O)O)c5)cc2-4)c2cc(Oc4cc(C(=O)O)cc(C(=O)O)c4)c(Oc4cc(C(=O)O)cc(C(=O)O)c4)cc32)cc(C(=O)O)c1.[Zn+2] showed a Viability (HEp-2 [1]) of 80% and a Viability (V79) of over 80%.
O=C([O-])c1cc(Oc2cc3c(cc2Oc2cc(C(=O)[O-])cc(C(=O)O)c2)-c2nc-3nc3[nH]c(nc4nc(nc5[nH]c(n2)c2cc(Oc6cc(C(=O)[O-])cc(C(=O)[O-])c6)c(Oc6cc(C(=O)[O-])cc(C(=O)O)c6)cc52)-c2cc(Oc5cc(C(=O)[O-])cc(C(=O)O)c5)c(Oc5cc(C(=O)[O-])cc(C(=O)O)c5)cc2-4)c2cc(Oc4cc(C(=O)[O-])cc(C(=O)O)c4)c(Oc4cc(C(=O)[O-])cc(C(=O)[O-])c4)cc32)cc(C(=O)[O-])c1.[Na+].[Na+].[Na+].[Na+].[Na+].[Na+].[Na+].[Na+].[Na+].[Zn+2] was tested, and the Viability (HEp-2 [1]) was 80%, the Viability (V79) was 80% and the IC50 (HEp-2 [2]) was 4.5 µM. It also gave an IC50 (HEp2 (human)) of 4.5 µM.
With O=C([O-])c1cc(Oc2cc3c(cc2Oc2cc(C(=O)[O-])cc(C(=O)[O-])c2)-c2nc-3nc3[nH]c(nc4nc(nc5[nH]c(n2)c2cc(Oc6cc(C(=O)[O-])cc(C(=O)[O-])c6)c(Oc6cc(C(=O)[O-])cc(C(=O)[O-])c6)cc52)-c2cc(Oc5cc(C(=O)[O-])cc(C(=O)[O-])c5)c(Oc5cc(C(=O)[O-])cc(C(=O)[O-])c5)cc2-4)c2cc(Oc4cc(C(=O)[O-])cc(C(=O)[O-])c4)c(Oc4cc(C(=O)[O-])cc(C(=O)[O-])c4)cc32)cc(C(=O)[O-])c1.[Na+].[Na+].[Na+].[Na+].[Na+].[Na+].[Na+].[Na+].[Na+].[Na+].[Na+].[Na+].[Na+].[Na+].[Na+].[Na+].[Zn] the Viability (HEp-2 [1]) was 80% and the Viability (V79) was 80%.
